Reference: PMC12501029, “Discovery of a CNS active GSK3 degrader using orthogonally reactive linker screening” (Nature Communications, 2025)

Columns and labels:
[1] = test system: HEK293 cells phosphoproteome; assay: Phosphoproteomics in HEK293 cells; assay type: cell-based, human; set-up: scale not given here; settings: vs DMSO; phosphosite abundance difference; MOESM9
Description: IMAC beads were prepared from Ni-NTA (nitrilotriacetic acid) superflow agarose beads. The nickel was stripped with 100 mM EDTA and incubated in an aqueous solution of 10 mM iron (III) chloride (FeCl3). Dried peptide fractions were reconstituted to a concentration of 0.5 μg/μL in 80% ACN/0.1% TFA. Peptide mixtures were enriched for phosphorylated peptides with 5 μL IMAC beads for 30 min with end-to-end rotation.
Enriched IMAC beads were loaded on Empore C18 silica-packed stage tips. Stage tips were equilibrated with acetonitrile followed by 50% ACN/0.1% FA then 1% FA. The beads with enriched peptides were loaded onto C18 stage tips and washed with 80% ACN/0.1% TFA. Phosphorylated peptides were eluted from IMAC beads with 500 mM dibasic sodium phosphate, pH 7.0. These peptides were washed with 1% FA before elution using 50% acetonitrile in 0.1% FA. The peptides were then dried by SpeedVac and stored at −20 °C until mass spectrometry analysis. The dried phosphopeptides were reconstituted in 0.1% formic acid and analyzed on an Orbitrap Ascend mass spectrometer coupled to a Thermo Fisher Scientific Vanquish Neo UHPLC. […] The total run time was set to 155 min. A survey full scan MS (from m/z 350–1500) was acquired in the Orbitrap at a resolution of 120,000 at 200 m/z. The most intense ions with charge state ≥2 were isolated and fragmented using higher collision dissociation (HCD) fragmentation, with 30% normalised collision energy, and detected at a mass resolution of 50,000 at 200 m/z. The isolation window was set at 1.6. The phosphoproteomics raw data were searched using SEQUEST HT search engines with Proteome Discoverer 3.0 (Thermo Fisher Scientific). The following parameters were used for searches: Precursor mass tolerance 10 ppm, fragment mass tolerance 0.02, enzyme: trypsin, […], fixed modification: carbamidomethylation of cysteine residues and TMT of lysine and N-terminal, dynamic modification: oxidation of methionine and phosphorylation of serine, threonine and tyrosine. The data were filtered for 1% PSM and peptide level. A two-tailed t-test with 250 randomisations was performed in Perseus software (v1.6.15.0) to assess statistical significance between groups. The resulting data were visualised as a volcano plot using GraphPad Prism (v10.1.2).

[2] = test system: HEK293 cells proteome; assay: Tandem-Mass-Tagging global (whole) proteomics in HEK293 cells; assay type: cell-based, human; settings: 10 nM
Description: For unbiased degradation profiling of compounds at the proteome level, HEK293 cells were seeded onto 10 cm plates at a density of 2–2.5 × 10^6 cells per plate. […] After treatment, cells were washed twice with PBS (Gibco), collected in Lobinding tubes (Merck) and lysed in RIPA buffer supplemented with Protease (Roche) and Phosphatase (Roche) inhibitors as previously described for 20 min on ice. Lysates were cleared via centrifugation and protein concentrations were determined by using Pierce BCA assay (Thermo Scientific). Similarly, brain and liver tissues from control and KH1 (24) treated mice were lysed as described above. One hundred and fifty micrograms of protein from tissues or cells for each condition was aliquoted into LoBind tubes (Eppendorf) and the STRAP (Protifi) protocol was followed according to manufacturers’ instructions with slight modifications. Briefly, liquid protein samples mixed with 2× Lysis buffer (10%SDS, 100 mM TEAB pH 8.5), protein was reduced with 5 mM DTT final concentration at 55 °C for 15 min, alkylated (final concentration 20 mM IAA or CAA) at room temperature for 10 min and then acidified (12% phosphoric acid). Protein was then trapped into S-trap columns and washed with S-trap binding/wash buffer (100 mM TEAB in 90% methanol) via centrifugation at 4000 × g for 30 s. Cleaned proteins then went through tryptic digestion (Trypsin (Thermo Scientific) in 50 mM TEAB) overnight at 37 °C or 2 h at 47 °C. Digested peptides were sequentially eluted in 80 µL of 50 mM TEAB (Sigma–Aldrich), 0.2% formic acid (Sigma–Aldrich) and 50% acetonitrile (Sigma–Aldrich). Elutions were pooled and dried down. Dried and cleaned peptides were reconstituted in 110 µL of 100 mM TEAB. TMT-16-plex reagent (Thermo Scientific) was brought into room temperature and reconstituted in 40 µL of anhydrous acetonitrile. TMT reagent solution was transferred to the peptides and incubated on thermoshaker (Eppendorf) at 400 rpm at room temperature for 1 h in the dark. Peptides were quenched by the addition of 8 µL of 5% Hydroxylamine for 1 h at room temperature. TMT-labelled peptides were pooled together and dried down in the speedVac for downstream processing. […]
The dried peptides were reconstituted in 0.1% formic acid and analyzed on an Orbitrap Ascend mass spectrometer coupled to a Thermo Fisher Scientific Vanquish Neo UHPLC. […] The precursor ions for MS2 were isolated using a Quadrupole mass filter at a 0.7 Da isolation width, fragmented using a normalised 30% HCD of ion routing multipole and analyzed using ion trap. The top 10 MS2 fragment ions in a subsequent scan were isolated and fragmented using HCD at a 55% normalised collision energy and analyzed using an Orbitrap mass analyser at a 60,000 resolution, in the scan range of 100–500 m/z. […]

Cn1nc(N2CCC(=O)NC2=O)c2ccc(CN3CCN(Cc4ccc(-c5cn(-c6ccc(-c7cn8nccc(C(=O)Nc9cnccc9N9CCOCC9)c8n7)cc6)nn5)nc4)CC3)cc21 [compound 24]
Difference, Q5PRF9 1xPhospho [S592(100)] SAMD4B [1]: 0.2452
Difference, Q8NEM7 1xPhospho [S437(100)] SUPT20H [1]: 0.1561
Difference, Q96KQ7 1xPhospho [S140(100)] EHMT2 [1]: 0.2159
Difference, Q15398 1xPhospho [S725(100)] DLGAP5 [1]: -0.5208
Difference, Q15911 1xPhospho [S426(100)] ZFHX3 [1]: -0.09567
proteome-wide selectivity ([2]; 4 and 24 h, vs DMSO and negative control 27): consistent proteome-wide selectivity for GSK3α and GSK3β
proteome-wide selectivity ([2]; 2 h, vs DMSO and negative control): exquisite selectivity for GSK3 paralogs
β-catenin abundance, log2 fold change ([2]; 4 h, p < 0.0005): +0.63
β-catenin abundance, log2 fold change ([2]; 24 h, p < 0.005): +0.89
